# Test results from patent US11649222B2, “Compounds” (UNIVERSITETET I OSLO, priority 2016, dated 2023).
# Where two headings read alike, the source gives them in different places. Marks after values point to notes of the source that are not given here.
# Key:
# [1] = system: P. aeruginosa 50692172 (NDM-1); assay: Microbroth dilution MIC of meropenem with/without inhibitor; assay type: cell-based
# Experimental: (§1) • Plate bacterial strain(s) on appropriate media: • Gram-negative bacteria with ESBLs or carbapenemases: green agar plates with 100 mg/L ampicillin • Gram-negative bacteria without β-lactamases: green agar plates • Gram-positive bacteria (Staphylococci and Enterococci): blood agar plates • Incubate o.n. at 37° C. […] (Should be used within 15 min of preparation). • Dilute the 0.5 McFarland suspension 1:100 into MH broth. […] Plate 10 μl of the dilution on MH agar plates (×2). Incubate o.n. at 37° C., count the colonies and calculate the final CFU/ml inoculum in the plate by multiplying the average number of colonies with 10000 and divide by 2. The final inoculum should be between 3-7×10^5 CFU/ml. • Add 50 μl of the prepared bacterial suspension to each well in the microtiter plate except negative growth control. Preparation of Compounds/Antibiotics • Calculate the desired concentration-range and volume of the compounds/antibiotics in the assay. […] Dilute the stock solution in MH broth. Make subsequent 2-fold dilutions in MH broth of the desired concentrations if a concentration range is to be tested (remember the extra dilution factor in the assay plate). Always include extra volume for pipetting. Take into consideration stock solutions that are made in buffers that have an effect on bacterial growth (e.g. DMSO).
# [2] = system: resistant gram-negative MBL-based bacteria; assay: MICx: adjuvant concentration giving carbapenem MIC ≤ 2 mg/L; assay type: cell-based; conditions: lowest concentration of compound X that results in a MIC value of ≤ 2 mg/L for carbapenem antibiotics
# Experimental: as §1
# [3] = system: K. pneumoniae K66-45 (NDM-1); assay: Microbroth dilution MIC of carbapenem with/without inhibitor; assay type: cell-based
# Experimental: as §1
# [4] = system: P. aeruginosa K34-7 (VIM-2); assay: as above; assay type: cell-based; conditions: for Meropenem activity (MIC) in presence of inhibitor: inhibitor 25 mg/L
# Experimental: as §1
# human hepG2 cells = assay: In vitro toxicity in human hepG2 cells (AlamarBlue viability); assay type: cell-based
# Experimental: For viability assays, cells were seeded in white 96-well Nunclon plates at a density of 20,000 cells/well and left overnight to adhere before experiments were conducted. Zn chelators dissolved in DMSO were added to white 96-well plates containing 20000 HepG2 cells/well at concentrations ranging from 1 to 1×10^−6 mM (max DMSO concentration never exceeded 1%) and incubated for 24 hours at 37° C. After 24 hours, AlamarBlue® cell viability reagent (Thermo Fisher, Carlsbad, USA) was added (10% final concentration) and incubated for 4 hours at 37° C.
# VIM-2 = VIM-2 (Escherichia coli, UniProt Q5U7L7); assay type: biochemical; conditions: purified VIM-2, PD-10 column
# Experimental: The eluent used was Chelex-treated HEPES 50 mM buffer, pH 7.5. […] In all experiments, 16 aliquots of 250 μL were taken from the PD-10 column runsout and enzyme activity was analysed. Enzyme activity was measured by adding Nitrocefin as a reporter substrate (final concentration of 50 μM).
# To investigate if more extreme time-dependent and concentration-dependent conditions could restore enzyme activity, aliquots having final concentrations of 30 nM column-treated enzyme and 1000 μM Zn^2+ on ice and at room temperature over prolonged time.
# [5] = system: K. pneumoniae 50732159 (No MBL); assay: Microbroth dilution MIC of meropenem with/without inhibitor; assay type: cell-based; conditions: inhibitor 25 mg/L
# Experimental: as §1
# [6] = system: P. aeruginosa 50808021 (No MBL); assay: as above; assay type: cell-based; conditions: inhibitor 25 mg/L
# Experimental: as §1
# K. pneumoniae K66-45 = assay type: cell-based; conditions: inhibitor 25 mg/L
# Experimental: After plating and grown overnight at 37° C., only single colonies, ignoring any touching the edges of the plate, were counted.
# 10^9 CFU K66-45 (Mueller-Hinton broth, no selection) was plated and grown overnight, 37° C. Only single colonies, ignoring any touching the edges of the plate, were counted.
# [7] = system: K. pneumoniae K66-45 and P. aeruginosa K34-7; assay: Microbroth dilution MIC, carbapenem + inhibitor, two resistant clinical isolates; assay type: cell-based; conditions: with meropenem
# Experimental: • Plate bacterial strain(s) on appropriate media: • Gram-negative bacteria with ESBLs or carbapenemases: green agar plates with 100 mg/L ampicillin • Gram-negative bacteria without β-lactamases: green agar plates • Gram-positive bacteria (Staphylococci and Enterococci): blood agar plates • Incubate o.n. at 37° C. Day 2: Prepare the Bacterial Inoculum: • Prepare a 0.5 McFarland suspension of bacteria in 0.85% NaCl. (Should be used within 15 min of preparation). • Dilute the 0.5 McFarland suspension 1:100 into MH broth. Check the inoculum by diluting the prepared bacterial suspension 1:100 (10 μl bacterial suspension+990 μl 0.85% NaCl). Plate 10 μl of the dilution on MH agar plates (×2). Incubate o.n. at 37° C., count the colonies and calculate the final CFU/ml inoculum in the plate by multiplying the average number of colonies with 10000 and divide by 2. The final inoculum should be between 3-7×10^5 CFU/ml. • Add 50 μl of the prepared bacterial suspension to each well in the microtiter plate except negative growth control. Preparation of Compounds/Antibiotics • Calculate the desired concentration-range and volume of the compounds/antibiotics in the assay. […] Dilute the stock solution in MH broth. Make subsequent 2-fold dilutions in MH broth of the desired concentrations if a concentration range is to be tested (remember the extra dilution factor in the assay plate). Always include extra volume for pipetting. Take into consideration stock solutions that are made in buffers that have an effect on bacterial growth (e.g. DMSO).
# [8] = human hepG2 cells, read-out: IC50h
# [9] = human hepG2 cells, 24 hours, AlamarBlue, 8 replicates, read-out: IC50
SMILES,MICx [2],IC50 (human hepG2 cells; [8]) [µM],Meropenem activity in presence of inhibitor [5] [mg/L],Meropenem activity in presence of inhibitor ([1]; inhibitor 25 mg/L) [mg/L],Meropenem activity in presence of inhibitor [6] [mg/L],adjuvant effect at an inhibitor concentration of 25 mg/L [7],other results
"C[C@H](CS)C(=O)N1CCC[C@H]1C(=O)O [Captopril, reference compound]",> 1000^d μM,33,,,,,"Meropenem activity in presence of inhibitor ([1]; inhibitor 63 mg/L): 32 to 64 mg/L; Meropenem activity in presence of inhibitor ([3]; inhibitor 63 mg/L, K. pneumoniae K66-45 NDM-1): 64 mg/L; Meropenem activity in presence of inhibitor ([4]; inhibitor 63 mg/L): 32 mg/L"
"O=C(O)CN(CCN(CC(=O)O)CC(=O)O)CC(=O)O [EDTA, ethylenediaminetetra-acetic acid, reference compound]",15 µM,,,,,,"IC50 (human hepG2 cells; Homo sapiens, HepG2, estimated values (footnote c), read-out: IC50h): 30 µM; irreversibility of VIM-2 inhibition (VIM-2): did not inhibit VIM-2 irreversibly"
"O=C(Cc1ccc(NC(=O)CN(CCN(Cc2ccccn2)Cc2ccccn2)Cc2ccccn2)cc1)NC[C@@H](O)CO [Example 23, (R)-2-((2-(bis(pyridin-2-ylmethyl)amino)ethyl)(pyridin-2-ylmethyl)amino)-N-(4-(2-(2,3-dihydroxypropylamino)-2-oxoethyl)phenyl)acetamide]",,,32,1,>64,,Meropenem activity (MIC) in presence of inhibitor [4]: 1 mg/L
"CN(C[C@H](O)[C@@H](O)[C@H](O)[C@H](O)CO)C(=O)Cc1ccc(NC(=O)CN(CCN(Cc2ccccn2)Cc2ccccn2)Cc2ccccn2)cc1 [Example 25, 2-(4-(2-((2-(bis(pyridin-2-ylmethyl)amino)ethyl)(pyridin-2-ylmethyl)amino)acetamido)phenyl)-N-methyl-N-(2,3,4,5,6-pentahydroxyhexyl)acetamide]",31 µM,113,64,2,>64,,"RF - no of colonies (K. pneumoniae K66-45; MEM 1 mg/L): 64 colonies; MIC ([3]; Klebsiella pneumoniae, inhibitor 31.25 μM, 50 μM and 100 μM, K. pneumoniae K66-45, read-out: MIC of MEM in the presence of inhibitor): 0.125 mg/L; Meropenem activity (MIC) in presence of inhibitor [4]: 2 mg/L; IC50 (human hepG2 cells; [9]): 113 µM"
"O=C(Cc1ccc(NC(=O)c2ccc(CN(Cc3ccccn3)Cc3ccccn3)nc2)cc1)NC(CO)(CO)CO [Example 100, 6-((bis(pyridin-2-ylmethyl)amino)methyl)-N-(4-(2-(1,3-dihydroxy-2-(hydroxymethyl)propan-2-ylamino)-2-oxoethyl)phenyl)nicotinamide]",31 µM,118,32,,>64,,IC50 (human hepG2 cells; [9]): > 100 µM
"COC(=O)c1ccc(CN(Cc2ccccn2)Cc2ccccn2)s1 [Example 180, Methyl 5-((bis(pyridin-2-ylmethyl)amino)methyl)thiophene-2-carboxylate]",,,,,,completely abolishes the adjuvant effect,"IC50 (human hepG2 cells; Homo sapiens, HepG2, 24 h): ~80 µM"
"CN(C[C@H](O)[C@@H](O)[C@H](O)[C@H](O)CO)C(=O)c1ccc(CN(Cc2ccccn2)Cc2ccccn2)s1 [Example 182, 5-((bis(pyridin-2-ylmethyl)amino)methyl)-N-methyl-N-((2S,3R,4R,5R)-2,3,4,5,6-pentahydroxyhexyl)thiophene-2-carboxamide]",,,,,,completely abolishes the adjuvant effect,
"CN(C[C@H](O)[C@@H](O)[C@H](O)[C@H](O)CO)C(=O)c1ccc(CN(Cc2ccccc2)Cc2ccccc2)nc1 [Example 185, 6-((dibenzylamino)methyl)-N-methyl-N-((2S,3R,4R,5R)-2,3,4,5,6-pentahydroxyhexyl)nicotinamide]",,,,,,completely abolishes the adjuvant effect,
"CN(C[C@H](O)[C@@H](O)[C@H](O)[C@H](O)CO)C(=O)c1ccc(CN(Cc2ccccc2)Cc2ccccn2)nc1 [Example 187, 6-((benzyl(pyridin-2-ylmethyl)amino)methyl)-N-methyl-N-((2S,3R,4R,5R)-2,3,4,5,6-pentahydroxyhexyl)nicotinamide]",,,,,,completely abolishes the adjuvant effect,
"COC(=O)[C@@H](C)NC(=O)[C@@H](C)NC(=O)Cn1cc(CN(Cc2ccccn2)Cc2ccccn2)nn1 [Example 194, Methyl (2-(4-((bis(pyridin-2-ylmethyl)amino)methyl)1H-1,2,3-triazol-1-yl)acetyl)-D-alanyl-D-alaninate, reference compound]",,,32,32,>64,,"RF - no of colonies (K. pneumoniae K66-45; MEM 1 mg/L): tntc (tntc = too numerous to count, plates containing either confluent growth or >1000 colonies); RF - no of colonies (K. pneumoniae K66-45; MEM 2 mg/L): tntc (tntc = too numerous to count, plates containing either confluent growth or >1000 colonies); RF - no of colonies (K. pneumoniae K66-45; MEM 4 mg/L): tntc (tntc = too numerous to count, plates containing either confluent growth or >1000 colonies); RF - no of colonies (K. pneumoniae K66-45; MEM 8 mg/L): tntc (tntc = too numerous to count, plates containing either confluent growth or >1000 colonies)"
